Data reported in ChEMBL document CHEMBL1949520, “Synthesis of terphenyl benzimidazoles as tubulin polymerization inhibitors” (2012).

Legend:
Assay type in all cases: functional
[1] = Growth inhibition of human DWD cells by SRB assay
COLO 205 = assay: Growth inhibition of human COLO205 cells by SRB assay
HOP-62 = assay: Growth inhibition of human HOP62 cells by SRB assay
SiHa = assay: Growth inhibition of human SiHa cells by SRB assay
A2780 = assay: Growth inhibition of human A2780 cells by SRB assay
MCF7 = assay: Growth inhibition of human MCF7 cells by SRB assay
KB = assay: Growth inhibition of human KB cells by SRB assay
ZR-75-1 = assay: Growth inhibition of human ZR-75-1 cells by SRB assay
A549 = assay: Growth inhibition of human A549 cells by SRB assay
[2] = Growth inhibition of human Gurav cells by SRB assay
PC-3 = assay: Growth inhibition of human PC3 cells by SRB assay

| Structure (SMILES) | GI50 (COLO 205) | GI50 (A2780) | GI50 (MCF7) | GI50 (KB) | GI50 (A549) | GI50 (PC-3) | GI50 [1] | GI50 (HOP-62) | GI50 (SiHa) | GI50 (ZR-75-1) | GI50 [2] |
| --- | --- | --- | --- | --- | --- | --- | --- | --- | --- | --- | --- |
| Oc1cccc2[nH]c(-c3ccc(-c4ccc(-c5cccc(Cl)c5)cc4)cc3)nc12 | 8.6 µM | 2.8 µM | 3.42 µM | 2.28 µM | 2.4 µM | 2.56 µM | 2.1 µM | 2.26 µM | 8.4 µM | 2.41 µM | 2.31 µM |
| COc1cccc2c1C(=O)c1c(O)c3c(c(O)c1C2=O)C[C@@](O)(C(=O)CO)C[C@@H]3O[C@H]1C[C@H](N)[C@H](O)[C@H](C)O1 [DOXORUBICIN] | 0.14 µM | 0.16 µM | 0.17 µM | 0.17 µM |  |  | 0.1 µM | 0.14 µM | 0.14 µM |  | 0.17 µM |
| FC(F)(F)c1ccc(-c2ccc(-c3ccc(-c4nc5ccccc5[nH]4)cc3)cc2)cc1 | 33.9 µM | 100 µM | 41.4 µM | 47.2 µM | 36.6 µM | 45.2 µM | 100 µM | 100 µM | 100 µM | 48.3 µM | 39.1 µM |
| COc1ccc(-c2ccc(-c3ccc(-c4nc5c(O)cccc5[nH]4)cc3)cc2)cc1OC | 1.32 µM | 2.71 µM | 0.19 µM | 2.71 µM | 1.31 µM | 1.24 µM | 1.4 µM | 2.21 µM | 1.11 µM | 2.11 µM | 1.11 µM |
| Clc1cccc(-c2ccc(-c3ccc(-c4nc5ccccc5[nH]4)cc3)cc2)c1 | 100 µM | 31.1 µM | 36.3 µM | 32.3 µM | 31.1 µM | 33.7 µM | 100 µM | 100 µM | 100 µM | 41.2 µM | 2.19 µM |
| CN(C)c1ccc(-c2ccc(-c3ccc(-c4nc5c(O)cccc5[nH]4)cc3)cc2)cc1 | 6.32 µM | 3.01 µM | 2.31 µM | 4.2 µM | 7.1 µM | 8.42 µM | 9.21 µM | 8.25 µM | 6.24 µM | 4.1 µM | 8.21 µM |
| COc1ccc(-c2ccc(-c3ccc(-c4nc5ccccc5[nH]4)cc3)cc2)cc1 | 45.2 µM | 100 µM | 33.3 µM | 47.2 µM | 38.1 µM | 100 µM | 100 µM | 100 µM | 2.76 µM | 35.1 µM | 38.1 µM |
| COc1ccc(-c2ccc(-c3ccc(-c4nc5c(O)cccc5[nH]4)cc3)cc2)cc1 | 1.63 µM | 8.64 µM | 3.11 µM | 4.9 µM | 7.69 µM | 6.61 µM | 6.4 µM | 3.21 µM | 4.8 µM | 8.2 µM | 6.63 µM |
| COc1ccc(-c2ccc(-c3ccc(-c4nc5ccccc5[nH]4)cc3)cc2)cc1OC | 41.2 µM | 21.6 µM | 7.6 µM | 9.25 µM | 7.6 µM | 47.1 µM | 42.1 µM | 4.2 µM | 6.2 µM | 39.7 µM | 9.23 µM |
| FC(F)(F)Oc1ccc(-c2ccc(-c3ccc(-c4nc5ccccc5[nH]4)cc3)cc2)cc1 | 100 µM | 100 µM | 38.4 µM | 39.1 µM | 38 µM | 100 µM | 100 µM | 100 µM | 38.4 µM | 100 µM | 100 µM |
| c1ccc(-c2ccc(-c3ccc(-c4nc5ccccc5[nH]4)cc3)cc2)cc1 | 100 µM | 32.1 µM | 39.2 µM | 39.7 µM | 41.2 µM | 41.2 µM | 100 µM | 100 µM | 100 µM | 100 µM | 100 µM |
| Oc1cccc2[nH]c(-c3ccc(-c4ccc(-c5ccc(OC(F)(F)F)cc5)cc4)cc3)nc12 | 8.32 µM | 2.9 µM | 2.21 µM | 3.31 µM | 0.19 µM | 7.41 µM | 3.1 µM | 2.27 µM | 8.41 µM | 3.8 µM | 3.6 µM |
| Oc1cccc2[nH]c(-c3ccc(-c4ccc(-c5ccc(C(F)(F)F)cc5)cc4)cc3)nc12 | 3.41 µM | 6.1 µM | 2.31 µM | 4.32 µM | 3.61 µM | 2.26 µM | 3.18 µM | 3.2 µM | 3.72 µM | 5.11 µM | 3.19 µM |
| Oc1cccc2[nH]c(-c3ccc(-c4ccc(-c5ccc(F)cc5)cc4)cc3)nc12 | 1.22 µM | 41.2 µM | 3.01 µM | 6.92 µM | 0.17 µM | 15.3 µM | 22.2 µM | 8.31 µM | 9.1 µM | 6.32 µM | 2.86 µM |

Second part, led by results:

| GI50 (COLO 205) | GI50 (A2780) | GI50 (MCF7) | GI50 (KB) | GI50 (A549) | GI50 (PC-3) | Structure (SMILES) | GI50 [1] | GI50 (HOP-62) | GI50 (SiHa) | GI50 (ZR-75-1) | GI50 [2] |
| --- | --- | --- | --- | --- | --- | --- | --- | --- | --- | --- | --- |
| 30.6 µM | 12.3 µM | 31 µM | 41.2 µM | 3.56 µM | 2.01 µM | Cc1ccc2[nH]c(-c3ccc(-c4ccc(-c5ccc(OC(F)(F)F)cc5)cc4)cc3)nc2c1 | 41.1 µM | 24.2 µM | 28.3 µM | 2.41 µM | 11 µM |
| 2.56 µM | 41.2 µM | 31.6 µM | 32.1 µM | 3.63 µM | 100 µM | Cc1ccc2[nH]c(-c3ccc(-c4ccc(-c5ccccc5)cc4)cc3)nc2c1 | 28.3 µM | 39.3 µM | 35.2 µM | 27.4 µM | 3.31 µM |
| 2.32 µM | 2.13 µM | 0.19 µM | 2.19 µM | 2.1 µM | 2.56 µM | COc1ccc(-c2ccc(-c3ccc(-c4nc5cc(C)ccc5[nH]4)cc3)cc2)cc1OC | 1.72 µM | 2.12 µM | 3.51 µM | 3.1 µM | 1.31 µM |
| 100 µM | 24.6 µM | 30.2 µM | 24.9 µM | 6.03 µM | 100 µM | Cc1ccc2[nH]c(-c3ccc(-c4ccc(-c5ccc(F)cc5)cc4)cc3)nc2c1 | 33.1 µM | 33.5 µM | 41 µM | 35 µM | 16.5 µM |
| 100 µM | 31.2 µM | 12.1 µM | 21.2 µM | 3.52 µM | 30 µM | Cc1ccc2[nH]c(-c3ccc(-c4ccc(-c5ccc(O)cc5)cc4)cc3)nc2c1 | 21.2 µM | 41.2 µM | 33.5 µM | 18.2 µM | 11.3 µM |
| 30.6 µM | 12.3 µM | 31 µM | 41.2 µM | 3.52 µM | 2.01 µM | Cc1ccc2[nH]c(-c3ccc(-c4ccc(-c5ccc(C(F)(F)F)cc5)cc4)cc3)nc2c1 | 38.2 µM | 24.2 µM | 33.2 µM | 2.41 µM | 12 µM |
